Assay results reported in ChEMBL document CHEMBL1145498, “A systematic interaction map of validated kinase inhibitors with Ser/Thr kinases” (Proc Natl Acad Sci U S A, 2007).

How the values were obtained:
[1] = target: Ribosomal protein S6 kinase alpha-3 (Homo sapiens) (UniProt P51812)
[2] = target: T1, Serine/threonine-protein kinase Nek2 (Homo sapiens) (UniProt P51955)
T1 sequence (whole entry): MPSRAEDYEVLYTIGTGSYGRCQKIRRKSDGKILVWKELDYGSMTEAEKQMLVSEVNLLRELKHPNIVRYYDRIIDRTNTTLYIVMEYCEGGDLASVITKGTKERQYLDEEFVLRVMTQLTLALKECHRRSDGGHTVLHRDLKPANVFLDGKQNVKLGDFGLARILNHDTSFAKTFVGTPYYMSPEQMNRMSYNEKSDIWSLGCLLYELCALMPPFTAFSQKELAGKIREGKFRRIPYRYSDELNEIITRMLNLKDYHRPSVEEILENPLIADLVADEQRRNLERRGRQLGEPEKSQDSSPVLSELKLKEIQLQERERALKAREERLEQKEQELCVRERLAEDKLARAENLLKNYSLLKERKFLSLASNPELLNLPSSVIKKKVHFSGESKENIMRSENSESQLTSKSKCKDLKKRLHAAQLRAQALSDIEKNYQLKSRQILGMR

[3] = target: Serine/threonine-protein kinase 26 (Homo sapiens) (UniProt Q9P289)
[4] = target: T2, Mitogen-activated protein kinase kinase kinase 5 (Homo sapiens) (UniProt Q99683)
T2 sequence (whole entry): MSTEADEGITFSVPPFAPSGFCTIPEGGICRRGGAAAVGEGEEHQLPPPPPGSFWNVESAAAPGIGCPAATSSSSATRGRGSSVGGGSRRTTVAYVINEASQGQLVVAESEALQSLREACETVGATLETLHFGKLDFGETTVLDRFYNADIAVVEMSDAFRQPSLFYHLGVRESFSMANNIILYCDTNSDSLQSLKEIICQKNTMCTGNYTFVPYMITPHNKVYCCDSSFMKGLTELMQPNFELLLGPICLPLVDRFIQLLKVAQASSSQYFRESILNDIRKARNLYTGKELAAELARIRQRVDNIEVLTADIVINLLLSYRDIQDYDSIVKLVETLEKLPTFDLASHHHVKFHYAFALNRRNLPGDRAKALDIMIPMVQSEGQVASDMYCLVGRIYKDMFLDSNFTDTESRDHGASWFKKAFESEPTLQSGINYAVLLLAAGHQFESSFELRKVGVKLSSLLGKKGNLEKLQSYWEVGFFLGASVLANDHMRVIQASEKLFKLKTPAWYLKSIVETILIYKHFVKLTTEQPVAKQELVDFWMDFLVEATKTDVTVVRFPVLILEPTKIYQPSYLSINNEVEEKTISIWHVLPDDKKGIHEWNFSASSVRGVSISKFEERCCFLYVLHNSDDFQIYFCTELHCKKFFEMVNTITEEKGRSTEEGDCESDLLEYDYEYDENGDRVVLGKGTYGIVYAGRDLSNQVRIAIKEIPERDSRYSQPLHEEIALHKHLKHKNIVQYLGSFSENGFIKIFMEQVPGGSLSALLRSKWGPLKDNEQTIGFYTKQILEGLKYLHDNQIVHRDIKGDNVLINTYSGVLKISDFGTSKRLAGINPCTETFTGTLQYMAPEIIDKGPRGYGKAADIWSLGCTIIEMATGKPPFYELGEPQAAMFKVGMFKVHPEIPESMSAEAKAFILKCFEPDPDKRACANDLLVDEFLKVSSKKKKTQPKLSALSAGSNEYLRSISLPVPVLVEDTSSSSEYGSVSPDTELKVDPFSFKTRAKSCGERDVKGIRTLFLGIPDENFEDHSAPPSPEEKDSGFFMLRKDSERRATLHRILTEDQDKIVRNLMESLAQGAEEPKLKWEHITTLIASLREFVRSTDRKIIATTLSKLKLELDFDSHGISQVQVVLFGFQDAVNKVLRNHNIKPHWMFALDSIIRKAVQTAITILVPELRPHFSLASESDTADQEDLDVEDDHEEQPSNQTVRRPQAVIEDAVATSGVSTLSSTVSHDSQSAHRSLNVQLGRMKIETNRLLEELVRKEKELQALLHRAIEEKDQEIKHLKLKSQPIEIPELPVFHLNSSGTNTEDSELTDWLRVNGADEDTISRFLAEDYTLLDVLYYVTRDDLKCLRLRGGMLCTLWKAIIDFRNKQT

[5] = target: Calcium/calmodulin-dependent protein kinase type II subunit beta (Homo sapiens) (UniProt Q13554)
Chain of Calcium/calmodulin-dependent protein kinase type II subunit beta (Homo sapiens) (Q13554 whole entry): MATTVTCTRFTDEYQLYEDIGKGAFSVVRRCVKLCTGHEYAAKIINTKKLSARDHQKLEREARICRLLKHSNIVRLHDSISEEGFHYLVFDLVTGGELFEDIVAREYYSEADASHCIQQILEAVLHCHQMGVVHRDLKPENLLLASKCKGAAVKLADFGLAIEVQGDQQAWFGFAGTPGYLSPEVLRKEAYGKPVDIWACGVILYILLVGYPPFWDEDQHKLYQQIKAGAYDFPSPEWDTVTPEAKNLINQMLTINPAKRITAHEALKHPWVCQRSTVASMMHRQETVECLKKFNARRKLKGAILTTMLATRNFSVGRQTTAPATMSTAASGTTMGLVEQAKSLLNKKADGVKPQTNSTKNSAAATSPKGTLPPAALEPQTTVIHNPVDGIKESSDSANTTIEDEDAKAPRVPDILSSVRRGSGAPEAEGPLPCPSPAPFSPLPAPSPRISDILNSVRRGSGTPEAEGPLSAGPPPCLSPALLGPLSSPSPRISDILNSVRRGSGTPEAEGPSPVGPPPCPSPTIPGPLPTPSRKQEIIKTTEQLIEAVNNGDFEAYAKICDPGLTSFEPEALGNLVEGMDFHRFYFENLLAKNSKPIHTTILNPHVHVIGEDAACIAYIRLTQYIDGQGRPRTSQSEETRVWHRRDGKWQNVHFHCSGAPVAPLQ

[6] = target: 5'-AMP-activated protein kinase catalytic subunit alpha-2 (Homo sapiens) (UniProt P54646)
[7] = target: Serine/threonine-protein kinase 38 (Homo sapiens) (UniProt Q15208)
Chain of Serine/threonine-protein kinase 38 (Homo sapiens) (Q15208 2-465 limits assumed): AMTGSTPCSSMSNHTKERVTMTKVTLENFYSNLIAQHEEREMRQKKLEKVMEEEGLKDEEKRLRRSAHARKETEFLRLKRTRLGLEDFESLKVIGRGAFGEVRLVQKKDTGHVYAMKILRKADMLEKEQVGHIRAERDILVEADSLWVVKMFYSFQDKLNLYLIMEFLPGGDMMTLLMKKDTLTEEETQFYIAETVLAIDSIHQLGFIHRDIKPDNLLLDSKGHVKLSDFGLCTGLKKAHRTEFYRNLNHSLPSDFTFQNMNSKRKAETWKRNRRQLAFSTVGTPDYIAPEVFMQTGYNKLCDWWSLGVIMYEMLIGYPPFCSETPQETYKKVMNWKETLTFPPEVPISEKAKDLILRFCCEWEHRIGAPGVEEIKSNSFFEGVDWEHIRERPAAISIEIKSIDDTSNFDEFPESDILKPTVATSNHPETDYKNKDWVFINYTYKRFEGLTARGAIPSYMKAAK

[8] = target: T3, Serine/threonine-protein kinase VRK3 (Homo sapiens) (UniProt Q8IV63)
T3 sequence (whole entry): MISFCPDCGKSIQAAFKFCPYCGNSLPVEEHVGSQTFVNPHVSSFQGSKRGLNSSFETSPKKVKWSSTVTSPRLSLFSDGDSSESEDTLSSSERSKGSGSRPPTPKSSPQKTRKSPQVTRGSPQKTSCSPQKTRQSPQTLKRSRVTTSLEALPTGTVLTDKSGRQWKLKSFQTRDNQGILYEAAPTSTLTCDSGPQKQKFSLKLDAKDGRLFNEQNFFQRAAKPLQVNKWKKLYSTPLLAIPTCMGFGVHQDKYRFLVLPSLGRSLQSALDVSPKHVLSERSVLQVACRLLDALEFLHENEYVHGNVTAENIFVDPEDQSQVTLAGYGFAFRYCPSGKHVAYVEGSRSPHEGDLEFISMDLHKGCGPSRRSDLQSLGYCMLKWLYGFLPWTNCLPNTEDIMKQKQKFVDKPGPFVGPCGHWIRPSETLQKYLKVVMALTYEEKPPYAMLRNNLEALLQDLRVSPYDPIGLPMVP

[9] = target: Mitogen-activated protein kinase 3 (Homo sapiens, UniProt P27361)
Chain of Mitogen-activated protein kinase 3 (P27361 whole entry): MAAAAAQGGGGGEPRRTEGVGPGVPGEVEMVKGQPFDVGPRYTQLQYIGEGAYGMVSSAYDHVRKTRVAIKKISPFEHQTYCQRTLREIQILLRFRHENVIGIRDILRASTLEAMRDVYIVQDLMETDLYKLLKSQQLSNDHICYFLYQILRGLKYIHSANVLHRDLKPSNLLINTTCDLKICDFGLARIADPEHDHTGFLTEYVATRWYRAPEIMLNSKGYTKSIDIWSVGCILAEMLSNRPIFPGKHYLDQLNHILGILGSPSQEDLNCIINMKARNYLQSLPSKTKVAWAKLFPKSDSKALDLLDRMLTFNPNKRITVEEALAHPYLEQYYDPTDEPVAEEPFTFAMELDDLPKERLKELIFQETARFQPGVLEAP

[10] = target: Serine/threonine-protein kinase 25 (Homo sapiens) (UniProt O00506)
Chain of Serine/threonine-protein kinase 25 (Homo sapiens) (O00506 whole entry, looked up): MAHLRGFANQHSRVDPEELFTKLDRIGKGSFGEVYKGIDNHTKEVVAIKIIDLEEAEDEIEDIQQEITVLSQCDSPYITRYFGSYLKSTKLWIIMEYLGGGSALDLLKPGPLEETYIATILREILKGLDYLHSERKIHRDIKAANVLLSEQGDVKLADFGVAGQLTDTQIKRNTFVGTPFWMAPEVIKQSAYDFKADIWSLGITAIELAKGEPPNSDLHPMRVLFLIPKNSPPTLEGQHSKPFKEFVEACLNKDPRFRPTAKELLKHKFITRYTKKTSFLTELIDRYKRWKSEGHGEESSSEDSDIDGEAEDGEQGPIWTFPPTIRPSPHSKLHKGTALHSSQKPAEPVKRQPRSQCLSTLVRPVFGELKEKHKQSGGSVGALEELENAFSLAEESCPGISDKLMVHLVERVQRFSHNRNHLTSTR

[11] = target: Glycogen synthase kinase-3 beta (Homo sapiens, UniProt P49841)
Chain of Glycogen synthase kinase-3 beta (P49841 whole entry, looked up): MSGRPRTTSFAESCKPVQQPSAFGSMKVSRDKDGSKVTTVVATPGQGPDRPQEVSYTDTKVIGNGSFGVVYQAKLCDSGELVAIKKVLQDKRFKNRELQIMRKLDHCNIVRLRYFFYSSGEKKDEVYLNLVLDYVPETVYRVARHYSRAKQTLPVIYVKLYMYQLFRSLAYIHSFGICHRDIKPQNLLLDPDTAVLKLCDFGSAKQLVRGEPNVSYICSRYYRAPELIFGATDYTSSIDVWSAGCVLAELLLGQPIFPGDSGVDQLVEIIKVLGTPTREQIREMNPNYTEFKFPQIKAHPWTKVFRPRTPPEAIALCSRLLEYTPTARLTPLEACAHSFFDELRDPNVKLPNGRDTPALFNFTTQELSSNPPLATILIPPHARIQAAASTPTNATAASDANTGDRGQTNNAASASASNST

[12] = target: Serine/threonine-protein kinase RIO2 (Homo sapiens) (UniProt Q9BVS4)
Chain of Serine/threonine-protein kinase RIO2 (Homo sapiens) (Q9BVS4 whole entry, looked up): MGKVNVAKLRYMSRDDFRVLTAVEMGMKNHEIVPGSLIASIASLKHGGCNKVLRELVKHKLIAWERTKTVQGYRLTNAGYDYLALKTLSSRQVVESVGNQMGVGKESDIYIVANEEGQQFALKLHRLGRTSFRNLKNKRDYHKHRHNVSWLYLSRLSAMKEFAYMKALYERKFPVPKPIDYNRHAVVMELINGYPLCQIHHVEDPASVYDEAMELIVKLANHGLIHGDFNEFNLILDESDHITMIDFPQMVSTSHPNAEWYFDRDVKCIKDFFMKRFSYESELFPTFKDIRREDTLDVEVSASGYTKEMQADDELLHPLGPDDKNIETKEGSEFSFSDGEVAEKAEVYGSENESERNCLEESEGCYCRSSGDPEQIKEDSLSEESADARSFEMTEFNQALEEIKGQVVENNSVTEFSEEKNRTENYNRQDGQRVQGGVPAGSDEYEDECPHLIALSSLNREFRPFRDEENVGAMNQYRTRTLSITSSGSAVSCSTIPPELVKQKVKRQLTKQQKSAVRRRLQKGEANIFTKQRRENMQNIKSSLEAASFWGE

[13] = target: Dual specificity mitogen-activated protein kinase kinase 2 (Homo sapiens, UniProt P36507)
Chain of Dual specificity mitogen-activated protein kinase kinase 2 (P36507 whole entry): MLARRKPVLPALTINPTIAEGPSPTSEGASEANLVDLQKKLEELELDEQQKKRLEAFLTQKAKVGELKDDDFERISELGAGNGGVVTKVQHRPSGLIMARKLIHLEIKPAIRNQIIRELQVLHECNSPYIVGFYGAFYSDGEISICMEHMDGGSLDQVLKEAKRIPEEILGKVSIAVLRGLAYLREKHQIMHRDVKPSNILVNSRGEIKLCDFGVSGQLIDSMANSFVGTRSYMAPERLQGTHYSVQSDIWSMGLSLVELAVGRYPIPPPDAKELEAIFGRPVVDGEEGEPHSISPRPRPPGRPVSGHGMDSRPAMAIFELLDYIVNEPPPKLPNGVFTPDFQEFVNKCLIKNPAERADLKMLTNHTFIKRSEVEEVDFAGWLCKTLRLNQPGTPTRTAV

[14] = target: Calcium/calmodulin-dependent protein kinase type II subunit gamma (Homo sapiens) (UniProt Q13555)
Chain of Calcium/calmodulin-dependent protein kinase type II subunit gamma (Homo sapiens) (Q13555 whole entry): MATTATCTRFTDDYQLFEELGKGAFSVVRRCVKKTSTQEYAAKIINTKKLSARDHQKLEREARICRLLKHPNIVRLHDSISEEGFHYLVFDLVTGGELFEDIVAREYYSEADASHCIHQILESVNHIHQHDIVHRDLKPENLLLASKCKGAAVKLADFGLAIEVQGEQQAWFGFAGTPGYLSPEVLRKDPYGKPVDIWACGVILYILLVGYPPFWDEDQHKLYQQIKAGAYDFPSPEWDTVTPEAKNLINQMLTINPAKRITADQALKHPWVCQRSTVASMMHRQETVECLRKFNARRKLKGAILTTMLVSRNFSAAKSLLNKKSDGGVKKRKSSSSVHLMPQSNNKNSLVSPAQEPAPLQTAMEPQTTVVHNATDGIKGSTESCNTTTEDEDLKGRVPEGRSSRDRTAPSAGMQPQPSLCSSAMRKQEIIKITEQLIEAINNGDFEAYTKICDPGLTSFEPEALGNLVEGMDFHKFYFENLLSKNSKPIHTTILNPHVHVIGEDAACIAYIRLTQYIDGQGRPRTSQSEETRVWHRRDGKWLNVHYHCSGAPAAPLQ

Chain of Ribosomal protein S6 kinase alpha-3 (Homo sapiens) (P51812 whole entry): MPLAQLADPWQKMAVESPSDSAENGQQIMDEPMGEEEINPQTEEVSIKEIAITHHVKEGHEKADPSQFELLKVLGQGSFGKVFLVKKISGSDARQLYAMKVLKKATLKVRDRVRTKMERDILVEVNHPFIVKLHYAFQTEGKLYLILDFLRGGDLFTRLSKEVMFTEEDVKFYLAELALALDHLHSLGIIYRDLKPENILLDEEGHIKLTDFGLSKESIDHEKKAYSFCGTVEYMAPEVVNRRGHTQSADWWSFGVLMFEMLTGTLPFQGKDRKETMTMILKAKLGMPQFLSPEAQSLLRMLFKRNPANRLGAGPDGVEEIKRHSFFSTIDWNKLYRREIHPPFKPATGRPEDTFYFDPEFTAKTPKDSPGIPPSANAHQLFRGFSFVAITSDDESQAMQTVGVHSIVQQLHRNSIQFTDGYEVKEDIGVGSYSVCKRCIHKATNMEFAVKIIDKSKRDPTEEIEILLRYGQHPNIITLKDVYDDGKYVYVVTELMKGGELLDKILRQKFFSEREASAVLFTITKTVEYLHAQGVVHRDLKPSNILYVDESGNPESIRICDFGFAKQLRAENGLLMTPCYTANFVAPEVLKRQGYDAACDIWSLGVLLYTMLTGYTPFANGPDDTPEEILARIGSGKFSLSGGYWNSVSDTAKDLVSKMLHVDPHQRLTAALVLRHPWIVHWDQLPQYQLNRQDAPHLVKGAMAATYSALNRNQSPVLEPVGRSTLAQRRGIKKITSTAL

Row | Structure (SMILES) | ΔTm [1] [°C] | ΔTm [2] [°C] | ΔTm [3] [°C] | ΔTm [4] [°C] | ΔTm [5] [°C] | ΔTm [6] [°C] | ΔTm [7] [°C] | ΔTm [8] [°C] | ΔTm [9] [°C] | ΔTm [10] [°C] | ΔTm [11] [°C] | ΔTm [12] [°C] | ΔTm [13] [°C] | ΔTm [14] [°C]
1 | CC(C)n1cnc2c(NCc3ccccc3O)nc(NCCCO)nc21 | 0.7 | 0.3 | 0.4 | 1 | 0.3 | 0.2 | 0.3 | 0.1 | 0.4 | 0.3 | 0.3 | -0.1 | -0.2 | 0.1
2 | CC(C)(C)c1cc(C=C2C(=O)C=CC2=O)cc(C(C)(C)C)c1O | -5 | 1.1 | 0.5 | 0.1 | -0.3 | -0.1 | 0.4 | -0.2 | 0.1 | 0.6 | -4 | 0.3 | -1.2 | 0.3
3 | O=[N+]([O-])c1ccc(-c2nc(-c3ccc(F)cc3)c(-c3ccncc3)[nH]2)cc1 | 0.7 | -0.5 | 0.7 | -0.3 | -0.5 | -0.4 | 0.9 | 0.4 | 0.5 | 0.9 | 6.9 | 2.5 | 0.3 | -0.3
4 | Nc1ncnc2c1c(I)cn2[C@@H]1O[C@H](CO)[C@@H](O)[C@H]1O | 1.4 | 0.4 | 1.4 | 0.9 | 0.4 | 1 | 1.7 | 0.1 | 1.5 | 4.2 | 2 | 1.7 | 1.9 | 0.6
5 | Ic1cccc(CSc2nnc(-c3ccncc3)o2)c1 | 0 | -0.2 | -0.5 | 0.8 | 0.1 | -0.7 | 0.8 | -0.1 | 0.5 | -0.3 | 7.1 | 1.6 | -0.8 | -0.1
6 | O=Nc1c(-c2c(O)[nH]c3ccccc23)[nH]c2ccccc12 | 0 | 2.5 | 2.5 | 5.7 | 1.6 | 4.5 | 2.7 | -0.8 | 0.9 | 3.8 | 11.5 | 2.6 | 4.4 | 2.3
7 | N#C/C(=C\c1ccc(O)c(O)c1)C(=O)NCc1ccccc1 | 1.2 | 0.7 | 0.1 | -0.2 | 0.2 | -0.2 | 0.1 | -0.2 | 0.8 | -0.4 | 2.6 | 1.5 | 0.2 | -0.2
